# Publication PMC11362529, “Exploring the neuroprotective potential of Nrf2-pathway activators against annonacin toxicity” (Scientific Reports, 2024)
# Legend:
# Type in all cases: cell-based, human
# LUHMES cells = test: Mitochondrial superoxide (MitoSOX / calcein AM); settings: 48 h
# Experimental: As before, cells seeded on PLO/FN-coated 24-well microplates were treated for 48 h with 20 nM of annonacin and the selected concentrations of Nrf2-pathway activators, in glucose-reduced medium. After this period, the medium was removed, and the cells were washed once with warm HBSS before being simultaneously incubated with 0.5 µM of MitoSOX™ red (Thermo Fisher Scientific) and 1 µM of calcein AM for 30 min at 37 °C. Next, the cells were again washed with HBSS and fresh HBSS was added to maintain cell viability during live-image acquisition on a fluorescence microscope Leica-DFC9000GTC (Leica). The cells were kept under controlled environmental conditions, and similar image acquisition parameters were used for all images, as explained before. We acquired ten to fifteen images per condition, from different view fields across triplicates, with a 200 × magnification (20 × objective, 10 × intermediate magnification). Quantification of MitoSOX and calcein AM FI was performed using the ImageJ software. Briefly, TIFF exported images were submitted to background subtraction using the rolling ball method with a radius of 50 pixels. Channel-specific thresholds were applied to all images to define the ROI, and the FI were measured as integrated density and reported as arbitrary units (a. u.). The MitoSOX FI was normalized to cell viability estimated by calcein AM FI, to obtain a MitoSOX FI/calcein FI ratio. The average ratio of the different view fields per experimental condition was taken and reported as fold change relative to the control (DMSO-treated) condition.
# 8-OHdG = test: Oxidative DNA damage marker 8-OHdG immunofluorescence; settings: 48 h; for 8-OHdG reactivity: protective concentration of compound + 20 nM annonacin
# Experimental: (§1) For immunostaining, cells were seeded in differentiation medium, on 24-well microplates containing PLO/FN-coated 13 mm Ø coverslips, and treated for 48 h as previously described. On the readout day, the medium was removed and cells were fixed, permeabilized and blocked as before. Primary antibody dilutions were made in 1.5% NHS in PBS (Supplementary Table S1) and incubated overnight at 4 °C. On the following day, the coverslips were washed three times with PBS and incubated with host-specific fluorescence secondary antibodies (Supplementary Table S1), for 2 h at RT, protected from light. After another three washes with PBS, cell nuclei were stained with 1:5,000 DAPI (4’,6-diamidino-2-phenylindole, Thermo Fisher Scientific) in PBS, for 15 min at RT. The coverslips were mounted in mowiol and left to dry for 24 h before imaging. Image acquisition for FI quantification was done with a 200 × magnification (20 × objective, 10 × intermediate magnification), or 400x (40 × objective, 10 × intermediate magnification) in the case of pSC-35 and AT8 immunostaining, on a fluorescence microscope Leica-DFC9000GTC (Leica). In the case of phospho-tau AT8, Z-stacks consisting of 18 plane images with a step size of 1 μm were acquired. The image acquisition parameters were identical for all conditions. Quantification of 8-OHdG (8-hydroxyguanosine) FI and tau species was performed using the ImageJ software. Ten-to-fifteen images per condition across triplicates, from different view fields, were used for this purpose. Briefly, TIFF exported images were submitted to background subtraction using the rolling ball method with a radius of 50 pixels. For 8-OHdG analysis, a channel-specific threshold was applied to all images to define the ROI and FI was measured and normalized to the cell number, determined by the DAPI channel. The average value of the different view fields per experimental condition was taken and reported as fold change compared to the control (DMSO-treated) condition. For the analysis of phospho-tau AT270 and pan-tau reactivity, channel specific thresholds were applied to all images. The DAPI channel was used to define nuclei from viable cells, by selecting particles with a size above 15 µm^2 and a circularity of 0.3–1.0. […] These masks were used to quantify the number of somas expressing each of these tau species, as well as the respective FI. The number of AT270-positive somas was divided by the number of pan-tau-positive somas and expressed as a percentage. […] For quantification of pSC-35 and AT8 speckle number and FI, we used CellProfiler™ 4 (https://cellprofiler.org/, Broad Institute Inc., Cambridge, MA, USA) speckle counting pipeline. […]
# 4R-tau transcripts = test: 4R-tau mRNA and 4R-/3R-tau ratio by RT-qPCR; settings: 48 h
# Experimental: (§2) LUHMES cells were seeded on PLO/FN coated 6-well microplates and the pharmacological treatments were performed as previously explained. The cells were washed in HBSS, prior to being collected for mRNA isolation (RNeasy® Plus Mini Kit, Qiagen, Venlo, Netherlands), following the manufacturer’s instructions. The mRNA concentrations were determined on a Nano-Drop 2000c (Thermo Fisher Scientific) and 1 µg of mRNA was reverse-transcribed into cDNA with the iScript™ Reverse Transcription Supermix for RT-qPCR Kit (Bio-Rad) on a thermal cycler (SensoQuest, Göttingen, Germany). Real-time PCR was performed using SYBR™ Select Master Mix for CFX (Thermo Fisher Scientific) with 30 ng cDNA and 0.4 µM of primers against the respective target genes (Supplementary Table S3), in a 20 µl total volume, on a CFX96 Touch™ Real-Time Cycler (Bio-Rad). The relative expression of mRNA was calculated using the CFX Manager software (ΔΔCt method) from Bio-Rad, and the Ct values of the target-genes were normalized to the reference genes RPL22 and UBQLN1. The data were reported as fold change relative to the control (DMSO-treated) condition.
# SRSF2/SC-35 = test: pSC-35 speckle immunofluorescence; settings: 48 h
# Experimental: as §1
# pThr-181 tau = test: AT270 (pThr-181 tau) immunofluorescence; settings: 48 h
# Experimental: For immunostaining, cells were seeded in differentiation medium, on 24-well microplates containing PLO/FN-coated 13 mm Ø coverslips, and treated for 48 h as previously described. On the readout day, the medium was removed and cells were fixed, permeabilized and blocked as before. Primary antibody dilutions were made in 1.5% NHS in PBS (Supplementary Table S1) and incubated overnight at 4 °C. On the following day, the coverslips were washed three times with PBS and incubated with host-specific fluorescence secondary antibodies (Supplementary Table S1), for 2 h at RT, protected from light. After another three washes with PBS, cell nuclei were stained with 1:5,000 DAPI (4’,6-diamidino-2-phenylindole, Thermo Fisher Scientific) in PBS, for 15 min at RT. The coverslips were mounted in mowiol and left to dry for 24 h before imaging. Image acquisition for FI quantification was done with a 200 × magnification (20 × objective, 10 × intermediate magnification), or 400x (40 × objective, 10 × intermediate magnification) in the case of pSC-35 and AT8 immunostaining, on a fluorescence microscope Leica-DFC9000GTC (Leica). In the case of phospho-tau AT8, Z-stacks consisting of 18 plane images with a step size of 1 μm were acquired. The image acquisition parameters were identical for all conditions. Quantification of 8-OHdG (8-hydroxyguanosine) FI and tau species was performed using the ImageJ software. Ten-to-fifteen images per condition across triplicates, from different view fields, were used for this purpose. Briefly, TIFF exported images were submitted to background subtraction using the rolling ball method with a radius of 50 pixels. For 8-OHdG analysis, a channel-specific threshold was applied to all images to define the ROI and FI was measured and normalized to the cell number, determined by the DAPI channel. The average value of the different view fields per experimental condition was taken and reported as fold change compared to the control (DMSO-treated) condition. For the analysis of phospho-tau AT270 and pan-tau reactivity, channel specific thresholds were applied to all images. The DAPI channel was used to define nuclei from viable cells, by selecting particles with a size above 15 µm^2 and a circularity of 0.3–1.0. The obtained mask was submitted to “close” and “fill holes” processes to smooth the objects and fill in small holes, followed by nine “dilations” and one “watershed” to obtain a ROI covering exclusively the soma of viable cells. The obtained mask was combined with threshold images of phospho-tau AT270 and pan-tau in order to define the respective ROI of each tau species. These masks were used to quantify the number of somas expressing each of these tau species, as well as the respective FI. The number of AT270-positive somas was divided by the number of pan-tau-positive somas and expressed as a percentage. The AT270 FI was normalized to the pan-tau FI and the ratio presented as fold change relative to the control (DMSO-treated) condition. For quantification of pSC-35 and AT8 speckle number and FI, we used CellProfiler™ 4 (https://cellprofiler.org/, Broad Institute Inc., Cambridge, MA, USA) speckle counting pipeline. Twenty-to-thirty images per condition across triplicates were used for this purpose. ImageJ BIOP JACoP plugin was used for estimating co-localization of AT8 with DAPI-stained nuclei. Data were reported as fold change compared to the control (DMSO-treated) condition, or as Pearsonʹs coefficient values in case the of AT8 co-localization data.
# NQO1 = NQO1 mRNA by RT-qPCR; settings: 48 h
# Experimental: as §2
# [1] = protective concentration of compound + 20 nM annonacin
# [2] = 15 μM ezetimibe + 20 nM annonacin
# [3] = protective concentration of compound + 20 nM annonacin, vs annonacin
smiles,measurement,setting,value
CCCCCCCCCCCC[C@@H](O)[C@H]1CC[C@H]([C@H](O)CCCC[C@H](O)CCCCC[C@@H](O)CC2=CC(C)OC2=O)O1 (some centres unmarked) [annonacin],MitoSOX fluorescence intensity,LUHMES cells; 20 nM annonacin alone,no major changes in MitoSOX fluorescence intensity
same,MitoSOX/calcein ratio,LUHMES cells; 20 nM annonacin alone,significantly increased
same,increase of 8-OHdG reactivity,8-OHdG; 20 nM annonacin alone,1.5 fold over control
same,4R-/3R-tau isoforms ratio,4R-tau transcripts; 20 nM annonacin alone,3.5 fold over control
same,upregulation of 4R-tau transcripts over control cells,4R-tau transcripts; 20 nM annonacin alone,twofold
same,number of pSC-35 speckles per nucleus,SRSF2/SC-35; 20 nM annonacin alone,no changes in the number of pSC-35 speckles per nucleus
same,pSC-35 fluorescence intensity,SRSF2/SC-35; 20 nM annonacin alone,no changes
same,AT270-positive somas,pThr-181 tau; 20 nM annonacin alone,more than 90%
same,"AT270 reactivity normalized to pan-tau, in the soma area",pThr-181 tau; 20 nM annonacin alone,1.9 ratio
same,"pThr-181 tau (AT270) normalized to pan-tau, neuritic and somatic compartment",pThr-181 tau; 20 nM annonacin alone,3.4 ratio
same,NQO1 mRNA expression,NQO1; 20 nM annonacin alone (DMSO control condition) vs DMSO control without annonacin,downregulation of both target-genes
O=C1[C@H](CC[C@H](O)c2ccc(F)cc2)[C@@H](c2ccc(O)cc2)N1c1ccc(F)cc1 [ezetimibe],MitoSOX/calcein ratio,LUHMES cells; [1],to control levels
same,8-OHdG reactivity,8-OHdG,levels of oxidative DNA damage comparable to healthy control cells
same,4R-/3R-tau isoforms ratio,4R-tau transcripts; [2],remained similar to healthy control cells
same,4R-tau transcripts,4R-tau transcripts; [2],prevented the annonacin-induced upregulation of 4R-tau transcripts
same,number of pSC-35 speckles per nucleus,SRSF2/SC-35; [2],non-significant reduction of the number of speckles per nucleus
same,pSC-35 fluorescence intensity per nucleus,"SRSF2/SC-35; 15 μM ezetimibe + 20 nM annonacin, vs control",twofold
same,AT270-positive somas,pThr-181 tau; [2],75%
same,"pThr-181 tau (AT270) normalized to pan-tau, neuritic and somatic compartment",pThr-181 tau; [3],attenuated annonacin-induced tau hyperphosphorylation
same,NQO1 mRNA expression,NQO1; absence of annonacin,did not induce significant changes
same,NQO1 mRNA expression,"NQO1; presence of 20 nM annonacin, vs DMSO control under annonacin",did not induce significant changes
C=CC(C)(C)c1cc(/C=C/C(=O)c2ccc(O)cc2)c(OC)cc1O [licochalcone A],MitoSOX/calcein ratio,LUHMES cells; [1],to levels below control
same,8-OHdG reactivity,8-OHdG,levels of oxidative DNA damage comparable to healthy control cells
same,"pThr-181 tau (AT270) normalized to pan-tau, neuritic and somatic compartment",pThr-181 tau; [3],attenuated annonacin-induced tau hyperphosphorylation
same,NQO1 mRNA expression,NQO1; absence of annonacin,2.5 fold over DMSO control
Cn1c(Nc2nc3ccc(C(F)(F)F)cc3s2)nc2cc(C(=O)NCCOCCO)ccc21 [HPP-D],MitoSOX/calcein ratio,LUHMES cells; [1],to control levels
same,8-OHdG reactivity,8-OHdG,small but significant reduction of 8-OHdG reactivity
same,"pThr-181 tau (AT270) normalized to pan-tau, neuritic and somatic compartment",pThr-181 tau; [3],attenuated annonacin-induced tau hyperphosphorylation
same,NQO1 mRNA expression,NQO1; absence of annonacin,fivefold
